Test results reported in paper PMC4863635, “Radicicol-Mediated Inhibition of Topoisomerase VIB-VIA Activity of the Human Malaria Parasite Plasmodium falciparum” (mSphere, 2016).
pIC50: −log10 of the molar value.

Legend:
[1] = biological target: T1, PfTopoVIB (measured as PfTopoVIB-VIA complex) (Plasmodium falciparum, UniProt Q8I5N7+Q8ID53); experiment: kDNA decatenation gel assay with yeast cell extract expressing PfTopoVIB-VIA; type: biochemical
T1 construct: gene PF3D7_1365600; full-length Myc-tagged PfTopoVIB co-expressed with Flag-tagged PfTopoVIA in S. cerevisiae, cell-free extract; with PfTopoVIA (PF3D7_1217100.1)

[2] = biological target: T2, PfTopoVIB (topoisomerase VIB subunit of PfTopoVI) (Plasmodium falciparum, UniProt Q8ID53); experiment: as above; type: biochemical
T2 construct: gene PF3D7_1365600; full-length Myc-tagged PfTopoVIB co-expressed with Flag-tagged PfTopoVIA in S. cerevisiae, cell-free extract; with PfTopoVIA (PF3D7_1217100.1)
T2 sequence (Q8ID53 1-561): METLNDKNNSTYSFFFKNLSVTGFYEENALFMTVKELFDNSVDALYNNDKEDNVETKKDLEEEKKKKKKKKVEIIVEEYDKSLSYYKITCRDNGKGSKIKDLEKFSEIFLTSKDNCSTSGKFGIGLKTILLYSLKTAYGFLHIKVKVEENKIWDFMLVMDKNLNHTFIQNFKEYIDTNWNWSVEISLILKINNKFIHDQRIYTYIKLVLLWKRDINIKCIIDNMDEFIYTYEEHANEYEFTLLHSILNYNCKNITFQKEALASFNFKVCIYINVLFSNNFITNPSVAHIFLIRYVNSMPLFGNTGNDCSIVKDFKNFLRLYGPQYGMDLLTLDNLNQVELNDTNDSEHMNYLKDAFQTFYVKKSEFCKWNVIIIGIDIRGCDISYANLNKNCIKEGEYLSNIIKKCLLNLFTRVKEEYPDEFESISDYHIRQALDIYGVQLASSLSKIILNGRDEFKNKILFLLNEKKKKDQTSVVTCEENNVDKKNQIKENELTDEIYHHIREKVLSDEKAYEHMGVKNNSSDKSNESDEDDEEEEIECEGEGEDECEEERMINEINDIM
T2 sequence (Q8I5N7 1-327 partner): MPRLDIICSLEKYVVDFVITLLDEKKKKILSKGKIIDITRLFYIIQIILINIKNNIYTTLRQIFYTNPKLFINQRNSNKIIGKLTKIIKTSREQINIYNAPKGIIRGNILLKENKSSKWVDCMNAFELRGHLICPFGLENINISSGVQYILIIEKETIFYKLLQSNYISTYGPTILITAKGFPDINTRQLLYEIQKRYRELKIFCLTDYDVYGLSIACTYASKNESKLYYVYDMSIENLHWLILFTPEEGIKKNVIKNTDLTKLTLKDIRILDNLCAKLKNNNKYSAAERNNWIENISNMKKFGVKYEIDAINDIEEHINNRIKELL

SMILES | inhibition at 10 µM [1] [%] | pIC50 [2]
COc1cc([C@@H]2c3cc4c(cc3[C@@H](O[C@@H]3O[C@@H]5CO[C@@H](C)O[C@H]5[C@H](O)[C@H]3O)[C@H]3COC(=O)[C@H]23)OCO4)cc(OC)c1O [etoposide] | > 80 | 
C[C@@H]1C[C@H]2O[C@@H]2/C=C\C=C\C(=O)Cc2c(Cl)c(O)cc(O)c2C(=O)O1 [radicicol] |  | ~4.10
